Data set [1] has as its system H9EOS cells. As to the kind of experiment: Chemical resetting of primed H9EOS cells to naive state; EGFP-positive cells quantified on Day 14 by flow cytometry. The data set is classed as cell-based, human. Particulars: for BMP activation judged from resetting efficiency standardized to Chemical only: 1, 5 or 10 μM added to VPA-containing cRM-1 on Days 3-5 (FIG. 10, 11); for resetting efficiency with respect to chemical: VPA-free cRM-1, miR-98-5p transfected Day 1 combined with BMP2 or BMP4 added Day 2 (FIG. 12). As to the method:
After collecting H9EOS and H9EOS (NK) cells and measuring the cell count in the same manner as for subculturing, they were diluted with AK02N medium containing Y-27632 (Nacalai Tesque, 08945-84) and iMatrix-511 silk (Nippi, 387-10131) (culture medium for primed pluripotent stem cells) and seeded on a multiwell plate (modified method of G. Guo, et. al., 144, 2748-2763 (2017)). The medium was exchanged with AK02N on Day 1, with culturing in cRM-1 (NDiff 227 (Takara, Y40002) containing 1 μM PD0325901, 10 ng/ml hLIF, 1 mM VPA) or VPA-free cRM-1 (culture medium for naive pluripotent stem cells) from Day 2 to Day 5, followed by culturing up to Day 14 in cRM-2 (NDiff 227 containing 1 μM PD0325901, 10 ng/ml hLIF, 2 μM Go6983, 2 μM XAV939). The resetting efficiency was quantified by counting the cell count using a flow cytometer, with the EGFP-expressing cells as naive cells.
The mimic used for each miRNA was mirVana miRNA Mimic (Thermo Fisher Scientific). A control, mirVana miRNA Mimic, Negative Control (Thermo Fisher Scientific, 4464058) was also used. Introduction was carried out on either Day 1, 2, 3 or 4, or a combination thereof, during the normal course of resetting, using Lipofectamine RNAiMAX Transfection Reagent (Thermo Fisher Scientific, 13778075) as the miRNA mimic. Culturing was then carried out according to common resetting protocol, and the EGFP-positive cells were quantified on Day 14 using a flow cytometer.
On Day 1 of the resetting protocol shown in FIG. 2, the 22 plasmids were used, either alone or as a mixture of the 22 plasmids minus one each, for transfection together with the transposase-expressing plasmid (pCAG-PBase), using Lipofectamine Stem Transfection Reagent (Thermo Fisher Scientific, STEM00003). Doxycycline was added at a final concentration of 250 ng/ml to cRM-1 on Days 2 to 5 to induce gene expression. Culturing was then carried out according to common resetting protocol, and the EGFP-positive cells were quantified on Day 14 using a flow cytometer.
[…] 2. Culturing was then carried out according to common resetting protocol, and the EGFP-positive cells were quantified on Day 14 using a flow cytometer.
To cRM-1 containing or not containing VPA there was added 10-100 ng/mL of rhBMP4 (Reprocell, 314-BP-010), on one or more of Days 1 to 5 of the resetting protocol of FIG. 2. Culturing was then carried out according to common resetting protocol, and the EGFP-positive cells were quantified on Day 14 using a flow cytometer.
On Day 1 of the resetting protocol of FIG. 2, one siRNA from among NR6A1, TRIM71, LRIG1, DNMT3B, IGF2BP1, CACHD1, PCDH8, L1TD1, SFRP1, VASH2, LIN28B, USP44, MAPK10, DICER1, DPH3, PRTG, MAPK6, HMGA2, LINC01356 (n491112) and LINC01356 (n549768) (all purchased from Horizon Discovery/Dharmacon) was introduced using Lipofectamine RNAiMAX Transfection Reagent (Thermo Fisher Scientific, 13778075). Culturing was then carried out according to common resetting protocol, and the EGFP-positive cells were quantified on Day 14 using a flow cytometer.
On the technique in general: In flow cytometry, cells or beads pass a laser one at a time.

In data set [2] the test system is AdiPS iPS cells and H1, H9EOS and H9 ES cells. The data set can be described thus: Resetting efficiency by SUSD2 staining and flow cytometry. Particulars: all cell lines; miR-98-5p mimic Day 1 or BMP4 Day 2; VPA-containing cRM-1; Day 14 (FIG. 16). The data set is classed as cell-based, human. As to the method: AccuMax was added to the cells on Day 14 of the resetting protocol of FIG. 2, and the mixture was incubated at 37° C. for about 10 to 15 minutes, after which the cells were detached. They were then suspended in 1% BSA-PBS to prevent nonspecific antibody binding, and after 30 minutes of blocking on ice, SUSD2 antibody was mixed with the cell suspension to a final concentration of 1:500, reaction was conducted for 30 minutes on ice and the mixture was rinsed with PBS, after which measurement was performed with a flow cytometer.
FIG. 16 is a graph showing resetting efficiency in culturing with VPA-containing cRM-1, using AdiPS iPS cells and H1, H9EOS and H9 ES cells. With mimic_ctrl and mimic-98-5p, cells were transfected with control mimic or miR-98-5p mimic on Day 1, culturing was carried out in VPA-containing cRM-1 from Day 2 to Day 4, and culturing was in cRM-2 from Day 5 to Day 14. For BMP-4, the BMP4 was added to VPA-containing cRM-1 on Day 2 without transfection of cells with control mimic or miR-98-5p mimic, for culturing up to Day 4, and then culturing was in cRM-2 from Day 5 to Day 14. […]

The source of these data is US20250290034A1, “METHOD FOR PRODUCING NAÏVE PLURIPOTENT STEM CELLS” (KYOTO UNIVERSITY, priority 2022, published 2025).

On to `Brc1ccc(CSc2nc3ccccc3o2)cc1` [SB-4], for which, in data set [1] (H9EOS), the “BMP activation judged from resetting efficiency standardized to Chemical only” value is “capable of activating BMP”.
Consider `O=C(/C=C/c1ccc(O)cc1)c1ccc(O)cc1O` [isoliquiritigenin], for which the “BMP activation judged from resetting efficiency standardized to Chemical only” value in data set [1] (H9EOS) is on record as “capable of activating BMP”.
For “BMP4: recombinant human bone morphogenetic protein BMP4 (Reprocell, 314-BP-010)”, the “resetting efficiency (GFP-positive cells)” value in data set [1] (H9EOS transfected with miR-98-5p Day 1, BMP4 added earlier (Day 0/1) with Wnt inhibitor (IWP mix, 1 μM) simultaneously or before, VPA-containing cRM-1 (FIG. 17)) was “maintaining the resetting efficiency”. Also, the “resetting efficiency compared to chemical” value in data set [1] (H9EOS, BMP added to medium on Day 2, VPA-containing cRM-1 (FIG. 12)) is given as “highly significant increase”. The “resetting efficiency with respect to chemical” value in data set [1] (H9EOS) is on record as “increase”. Moreover, the resetting efficiency entry in data set [1] (H9EOS, rhBMP4 added on Day 0 (FIG. 12, 13)) was “lower”. Also, in data set [2], the “percentage of SUSD2-positive cells” value is given as “tended to increase”.
For “miR-98-5p: let-7 family miRNA mimic (mirVana), sequence UGAGGUAGUAAGUUGUAUUGUU, SEQ ID 1 (listed as RNA, chemistry not given here; listed as Homo sapiens)”, the “resetting efficiency with respect to chemical” value in data set [1] (H9EOS) was “increase”. Also, in data set [1] (H9EOS, miR-98-5p transfected Day 1 in addition to BMP2 or BMP4 on Day 2, VPA-containing cRM-1 (FIG. 12)), the resetting efficiency result is recorded as “tended to further increase”. In addition, the “resetting efficiency (EGFP-positive cells)” value in data set [1] (H9EOS, miRNA mimic transfected on Day 1, cRM-1 containing VPA, Day 14 (FIG. 3, FIG. 4)) is “significantly high”. In data set [2], the “percentage of SUSD2-positive cells” value is listed as “tended to increase”.
